From patent US10124004B2, “Pyrido[3,4-d]pyrimidine derivative and pharmaceutically acceptable salt thereof” (Teijin Pharma Limited, priority 2015, dated 2018) come the findings set out here.

In general, IC50 refers to the concentration at which inhibition is half-maximal.

Bounds are passed on as bounds.

Assay [1] addresses T1, CDK4/cyclin D3 (Homo sapiens, UniProt P11802).
T1 construct: purchased Carna Biosciences, Inc. QS S Assist CDK4/Cyclin D3_FP Kit
The experiment in a line: Human CDK4/cyclin D3 inhibitory activity (QS S Assist CDK4/Cyclin D3_FP Kit, IMAP fluorescence polarization). The format is biochemical. The note with it: 50% inhibitory concentration against CDK4/cyclin D3, given as class symbol. A digest of the protocol:
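Percent inhibition, relative to DMSO with and without enzyme, was curve-fitted to give IC50 from polarization (ex 485, em 535 nm). The 45-min room-temperature reaction used 12.5-25 ng/well enzyme, kit ATP/substrate/metal mix, and HEPES pH 7.4 buffer with Tween20 and DTT, followed by 30-min IMAP binding in the dark.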
(Fluorescence polarisation rises when a labelled molecule tumbles more slowly, as on binding a larger partner.)

For assay [2], the target named is T2, CDK2/cyclin A2 (Homo sapiens, UniProt P24941).
T2 construct: purchased Carna Biosciences, Inc. QS S Assist CDK2/Cyclin A2_FP Kit
The experiment in a line: Human CDK2/cyclin A2 inhibitory activity (QS S Assist CDK2/Cyclin A2_FP Kit, IMAP fluorescence polarization). The assay is classed as biochemical. Particulars: 50% inhibitory concentration against CDK2/cyclin A2, given as class symbol. A digest of the protocol:
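Kinase activity read as fluorescence polarization (485/535 nm) after phosphorylated fluorescent substrate binds IMAP reagent (30 min, RT, dark). Enzyme (2.5 ng/well) reacted 60 min at RT with ATP/substrate/metal in HEPES pH 7.4 buffer with Tween 20 and DTT; no-enzyme wells define 0% activity; IC50 by curve fit.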

T1 sequence (P11802 whole entry): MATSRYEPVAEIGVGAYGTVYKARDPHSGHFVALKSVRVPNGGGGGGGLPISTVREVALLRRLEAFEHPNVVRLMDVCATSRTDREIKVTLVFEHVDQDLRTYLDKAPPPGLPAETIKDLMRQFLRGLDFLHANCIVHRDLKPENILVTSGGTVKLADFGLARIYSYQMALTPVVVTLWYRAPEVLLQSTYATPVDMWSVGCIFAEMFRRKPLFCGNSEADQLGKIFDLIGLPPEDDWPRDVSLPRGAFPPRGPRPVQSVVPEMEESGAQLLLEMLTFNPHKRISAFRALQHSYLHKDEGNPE
T1 sequence (P30281 whole entry partner): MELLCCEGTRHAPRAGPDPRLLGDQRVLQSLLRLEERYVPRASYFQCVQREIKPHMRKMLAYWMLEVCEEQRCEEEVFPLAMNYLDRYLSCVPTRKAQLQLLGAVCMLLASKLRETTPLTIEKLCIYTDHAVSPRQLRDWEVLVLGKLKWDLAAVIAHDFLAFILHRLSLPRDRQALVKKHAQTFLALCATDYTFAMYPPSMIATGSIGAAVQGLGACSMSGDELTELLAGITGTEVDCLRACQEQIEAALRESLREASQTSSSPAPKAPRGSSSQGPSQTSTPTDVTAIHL

Regarding `Cc1nc(Nc2ncc3cc([C@@H](C)O)nc(NC4CCC4)c3n2)ccc1N1CCNCC1` [Compound 1094], the half-maximal inhibitory concentration (IC50) in assay [1] is less than 10 nM; in assay [2], not below 100 nM.
On to `Cc1nc(Nc2ncc3cc([C@@H](C)O)nc(NCC4CC4)c3n2)ccc1N1CCNCC1` [Compound 1095], for which the concentration for half-maximal inhibition (IC50) in assay [1] is less than 10 nM; in assay [2] it was not below 100 nM.
`CCNc1nc(C(F)F)cc2cnc(Nc3ccc(CN4CCC(C(=O)O)CC4)cn3)nc12` [Compound 1096]: the values for the IC50 in assay [1] and in assay [2] were 10 to 100 nM and not below 100 nM, respectively.
On to `CCCNc1nc(C(F)F)cc2cnc(Nc3ccc(CN4CCC(C(=O)O)CC4)cn3)nc12` [Compound 1097], for which the figures for the IC50 in assay [1] and in assay [2] were 10 to 100 nM and not below 100 nM, respectively.
On to `CC(C)CNc1nc(C(F)F)cc2cnc(Nc3ccc(CN4CCC(C(=O)O)CC4)cn3)nc12` [Compound 1098], for which the IC50 was 10 to 100 nM in assay [1] and not below 100 nM in assay [2].
In the case of `O=C(O)C1CCN(Cc2ccc(Nc3ncc4cc(C(F)F)nc(NC5CCC5)c4n3)nc2)CC1` [Compound 1099], the 50% inhibitory concentration (IC50) is less than 10 nM in assay [1] and not below 100 nM in assay [2].
For the compound `O=C(O)C1CCN(Cc2ccc(Nc3ncc4cc(C(F)F)nc(NCC5CC5)c4n3)nc2)CC1` [Compound 1100], the IC50 in assay [1] is 10 to 100 nM; in assay [2], not below 100 nM.
Regarding `C[C@@H](O)c1cc2cnc(Nc3ccc(N4CCN(C)CC4)nn3)nc2c(NC(C)(C)CO)n1` [Compound 1101], the half-inhibitory concentration (IC50) in assay [1] was less than 10 nM; in assay [2], not below 100 nM.
In the case of `CCCNc1nc([C@@H](C)O)cc2cnc(Nc3ccc(N4CCN(C)CC4)nn3)nc12` [Compound 1102], the IC50 is less than 10 nM in assay [1] and not below 100 nM in assay [2].
Regarding `CCNc1nc([C@@H](C)O)cc2cnc(Nc3ccc(CN4CCN(C)CC4)cn3)nc12` [Compound 1103], the IC50 in assay [1] is less than 10 nM; in assay [2], not below 100 nM.
Taken in the same sequence, the figures for `CCCNc1nc([C@@H](C)O)cc2cnc(Nc3ccc(CN4CCN(C)CC4)cn3)nc12` [Compound 1104] were less than 10 nM and not below 100 nM.
Take `COC[C@@H](C)Nc1nc([C@@H](C)O)cc2cnc(Nc3ccc(CN4CCN(C)CC4)cn3)nc12` [Compound 1105]: the IC50 is less than 10 nM in assay [1] and not below 100 nM in assay [2].
Consider `C[C@@H](O)c1cc2cnc(Nc3ccc(CN4CCN(C)CC4)cn3)nc2c(NC(C)(C)CO)n1` [Compound 1106], for which the results for the IC50 in assay [1] and in assay [2] were less than 10 nM and not below 100 nM, respectively.
Taken in the same sequence, the figures for `CCNc1nc(C2(C)COC2)cc2cnc(Nc3ccc(CN4CCNCC4)cn3)nc12` [Compound 1107] were less than 10 nM and not below 100 nM.
Take `CC1(c2cc3cnc(Nc4ccc(CN5CCNCC5)cn4)nc3c(NC3CCC3)n2)COC1` [Compound 1108]: the IC50 in assay [1] is less than 10 nM; in assay [2], not below 100 nM.
Take `CC1(c2cc3cnc(Nc4ccc(CN5CCNCC5)cn4)nc3c(NCC3CC3)n2)COC1` [Compound 1109]: the IC50 was less than 10 nM in assay [1] and not below 100 nM in assay [2].
Consider `CC1(c2cc3cnc(Nc4ccc(CN5CCNCC5)cn4)nc3c(NCC3CC(F)(F)C3)n2)COC1` [Compound 1110], for which the IC50 in assay [1] is less than 10 nM; in assay [2], not below 100 nM.
Consider `CCCNc1nc([C@@H](C)OC)cc2cnc(Nc3ccc4c(n3)CCN(C(=O)CO)C4)nc12` [Compound 1111], for which the values for the half-inhibitory concentration (IC50) in assay [1] and in assay [2] were 10 to 100 nM and not below 100 nM, respectively.
Regarding `CCNc1nc([C@@H](C)OC)cc2cnc(Nc3ccc4c(n3)CCN(C(=O)CO)C4)nc12` [Compound 1112], the IC50 in assay [1] was 10 to 100 nM; in assay [2], not below 100 nM.
In the same order, the values of `CO[C@H](C)c1cc2cnc(Nc3ccc4c(n3)CCN(C(=O)CO)C4)nc2c(N[C@H]2CCCOC2)n1` [Compound 1113] are 10 to 100 nM and not below 100 nM.
With `O=C(CO)N1CCc2nc(Nc3ncc4cc(C5CCOC5)nc(N[C@H]5CCCOC5)c4n3)ccc2C1` (stereo partly shown) [Compound 1114], the half-maximal inhibitory concentration (IC50) in assay [1] is less than 10 nM; in assay [2] it was not below 100 nM.
Taken in the same sequence, the figures for `CC1(c2cc3cnc(Nc4ccc5c(n4)CCN(C(=O)CO)C5)nc3c(N[C@H]3CCCOC3)n2)COC1` [Compound 1115] were less than 10 nM and not below 100 nM.
Take `CCCNc1nc([C@@H](C)O)cc2cnc(Nc3ccc4c(n3)CCN(C(=O)CO)C4)nc12` [Compound 1116]: the figures for the IC50 in assay [1] and in assay [2] were less than 10 nM and not below 100 nM, respectively.
On to `CCNc1nc([C@@H](C)O)cc2cnc(Nc3ccc4c(n3)CCN(C(=O)CO)C4)nc12` [Compound 1117], for which the IC50 in assay [1] is 10 to 100 nM; in assay [2] it was not below 100 nM.
For the compound `C[C@@H](O)c1cc2cnc(Nc3ccc4c(n3)CCN(C(=O)CO)C4)nc2c(N[C@H]2CCCOC2)n1` [Compound 1118], the values for the IC50 in assay [1] and in assay [2] were less than 10 nM and not below 100 nM, respectively.
Consider `CCCNc1nc([C@@H](C)OC)cc2cnc(Nc3ccc4c(n3)CCN(CCO)C4)nc12` [Compound 1119], for which the IC50 in assay [1] was less than 10 nM; in assay [2], not below 100 nM.
Taken in the same sequence, the figures for `CCNc1nc([C@@H](C)OC)cc2cnc(Nc3ccc4c(n3)CCN(CCO)C4)nc12` [Compound 1120] were 10 to 100 nM and not below 100 nM.
As for `CO[C@H](C)c1cc2cnc(Nc3ccc4c(n3)CCN(CCO)C4)nc2c(N[C@H]2CCCOC2)n1` [Compound 1121], the IC50 in assay [1] was less than 10 nM; in assay [2] it was not below 100 nM.
As for `OCCN1CCc2nc(Nc3ncc4cc(C5CCOC5)nc(N[C@H]5CCCOC5)c4n3)ccc2C1` (stereo partly shown) [Compound 1122], the figures for the IC50 in assay [1] and in assay [2] were less than 10 nM and not below 100 nM, respectively.
Take `CCCNc1nc([C@@H](C)O)cc2cnc(Nc3ccc4c(n3)CCN(CCO)C4)nc12` [Compound 1123]: the 50% inhibitory concentration (IC50) is 10 to 100 nM in assay [1] and not below 100 nM in assay [2].
In the same order, the values of `CCNc1nc([C@@H](C)O)cc2cnc(Nc3ccc4c(n3)CCN(CCO)C4)nc12` [Compound 1124] are 10 to 100 nM and not below 100 nM.
As for `C[C@@H](O)c1cc2cnc(Nc3ccc4c(n3)CCN(CCO)C4)nc2c(N[C@H]2CCCOC2)n1` [Compound 1125], the half-maximal inhibitory concentration (IC50) in assay [1] was less than 10 nM; in assay [2] it was not below 100 nM.
In the same order, the values of `C[C@@H](O)c1cc2cnc(Nc3ccc(CN4CCC(O)CC4)cn3)nc2c(N[C@H]2CCCOC2)n1` [Compound 1126] are less than 10 nM and not below 100 nM.
Take `C[C@@H](O)c1cc2cnc(Nc3ccc(CN4CCCC(O)C4)cn3)nc2c(NC(C)(C)C)n1` (stereo partly shown) [Compound 1127]: the values for the half-inhibitory concentration (IC50) in assay [1] and in assay [2] were less than 10 nM and not below 100 nM, respectively.
Turning to `C[C@@H](O)c1cc2cnc(Nc3ccc(CN4CCCC(O)C4)cn3)nc2c(N[C@H]2CCCOC2)n1` (stereo partly shown) [Compound 1128], the figures for the half-maximal inhibitory concentration (IC50) in assay [1] and in assay [2] were less than 10 nM and not below 100 nM, respectively.
Consider `CC1(c2cc3cnc(Nc4ccc5c(n4)CCN(CCO)C5)nc3c(N[C@H]3CCCOC3)n2)COC1` [Compound 1129], for which the half-maximal inhibitory concentration (IC50) in assay [1] is less than 10 nM; in assay [2], not below 100 nM.
Consider `CCCNc1nc([C@@H](C)OC)cc2cnc(Nc3ccc4c(n3)CCN(CCN(C)C)C4)nc12` [Compound 1130], for which the IC50 is 10 to 100 nM in assay [1] and not below 100 nM in assay [2].
With `CCNc1nc([C@@H](C)OC)cc2cnc(Nc3ccc4c(n3)CCN(CCN(C)C)C4)nc12` [Compound 1131], the IC50 in assay [1] was 10 to 100 nM; in assay [2], not below 100 nM.
With `CO[C@H](C)c1cc2cnc(Nc3ccc4c(n3)CCN(CCN(C)C)C4)nc2c(N[C@H]2CCCOC2)n1` [Compound 1132], the IC50 in assay [1] was less than 10 nM; in assay [2], not below 100 nM.
For `CCCNc1nc([C@@H](C)OC)cc2cnc(Nc3ccc4c(n3)CCN(C(=O)OCCN(C)C)C4)nc12` [Compound 1133], the half-maximal inhibitory concentration (IC50) in assay [1] was less than 10 nM; in assay [2] it was not below 100 nM.
Consider `CCNc1nc([C@@H](C)OC)cc2cnc(Nc3ccc4c(n3)CCN(C(=O)OCCN(C)C)C4)nc12` [Compound 1134], for which the IC50 is less than 10 nM in assay [1] and not below 100 nM in assay [2].
Taken in the same sequence, the figures for `CO[C@H](C)c1cc2cnc(Nc3ccc4c(n3)CCN(C(=O)OCCN(C)C)C4)nc2c(N[C@H]2CCCOC2)n1` [Compound 1135] were less than 10 nM and not below 100 nM.
With `CN(C)CCOC(=O)N1CCc2nc(Nc3ncc4cc(C5CCOC5)nc(N[C@H]5CCCOC5)c4n3)ccc2C1` (stereo partly shown) [Compound 1136], the IC50 is less than 10 nM in assay [1] and not below 100 nM in assay [2].
As for `CN(C)CCOC(=O)N1CCc2nc(Nc3ncc4cc(C5(C)COC5)nc(N[C@H]5CCCOC5)c4n3)ccc2C1` [Compound 1137], the IC50 was less than 10 nM in assay [1] and not below 100 nM in assay [2].
In the case of `CCCNc1nc([C@@H](C)O)cc2cnc(Nc3ccc4c(n3)CCN(CCN(C)C)C4)nc12` [Compound 1138], the IC50 in assay [1] was less than 10 nM; in assay [2], not below 100 nM.
As to `CCNc1nc([C@@H](C)O)cc2cnc(Nc3ccc4c(n3)CCN(CCN(C)C)C4)nc12` [Compound 1139], the 50% inhibitory concentration (IC50) in assay [1] is less than 10 nM; in assay [2] it was not below 100 nM.
For the compound `C[C@@H](O)c1cc2cnc(Nc3ccc4c(n3)CCN(CCN(C)C)C4)nc2c(N[C@H]2CCCOC2)n1` [Compound 1140], the concentration for half-maximal inhibition (IC50) was less than 10 nM in assay [1] and not below 100 nM in assay [2].
As to `CCCNc1nc([C@@H](C)O)cc2cnc(Nc3ccc4c(n3)CCN(C(=O)OCCN(C)C)C4)nc12` [Compound 1141], the IC50 in assay [1] is less than 10 nM; in assay [2] it was not below 100 nM.
On to `CCNc1nc([C@@H](C)O)cc2cnc(Nc3ccc4c(n3)CCN(C(=O)OCCN(C)C)C4)nc12` [Compound 1142], for which the half-inhibitory concentration (IC50) was less than 10 nM in assay [1] and not below 100 nM in assay [2].
As to `C[C@@H](O)c1cc2cnc(Nc3ccc4c(n3)CCN(C(=O)OCCN(C)C)C4)nc2c(N[C@H]2CCCOC2)n1` [Compound 1143], the 50% inhibitory concentration (IC50) in assay [1] is less than 10 nM; in assay [2], not below 100 nM.
